In US20170037028A1 (BAYER PHARMA AKTIENGESELLSCHAFT, priority 2013, published 2017):
Where two headings read alike, the source gives them in different places.

Molecular target: T1, GLUT1 (Homo sapiens, UniProt P11166)
T1 sequence (P11166 1-492): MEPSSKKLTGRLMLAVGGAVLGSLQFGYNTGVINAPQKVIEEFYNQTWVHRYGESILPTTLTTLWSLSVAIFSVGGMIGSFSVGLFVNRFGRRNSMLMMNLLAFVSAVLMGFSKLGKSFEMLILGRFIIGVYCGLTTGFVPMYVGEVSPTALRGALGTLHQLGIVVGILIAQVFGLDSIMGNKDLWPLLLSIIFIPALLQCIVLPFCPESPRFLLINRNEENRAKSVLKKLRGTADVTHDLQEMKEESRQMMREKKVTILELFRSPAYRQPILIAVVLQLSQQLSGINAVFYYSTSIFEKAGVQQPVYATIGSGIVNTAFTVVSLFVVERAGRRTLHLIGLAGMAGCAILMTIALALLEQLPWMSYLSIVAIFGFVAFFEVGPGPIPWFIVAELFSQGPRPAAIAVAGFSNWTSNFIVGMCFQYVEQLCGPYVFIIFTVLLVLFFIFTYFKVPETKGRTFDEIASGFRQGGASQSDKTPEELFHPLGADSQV
Assay: Indirect measurement of GLUT1 activity by quantification of intracellular ATP levels (glucose induced ATP increase)
Type: cell-based
Design: endogenous in cells; host or cells: DLD1 or CHO-K1
Conditions: read-out: IC50 regarding glucose induced ATP increase (GLUT1 inhibition)
How it was run: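 DLD1 or CHO-K1 cells were starved overnight in glucose-free medium with 1% FCS, then combined with an oxidative phosphorylation inhibitor. GLUT1 activity was read as glucose-induced ATP increase, GLUT2 as fructose-induced. Intracellular ATP was quantified by CellTiter-Glo luminescence.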

[1] = DLD1 cells, 0.1 mM glucose, 1 μM Rotenone, 15 min, CellTiter-Glo ATP readout, IC50 values standardized to cytochalasin B IC50 values

Row | SMILES | IC50 | IC50 [1]
1 | Cc1nn(Cc2ccc(C(=O)NCc3cccs3)cc2)c(C)c1NC(=O)c1cc(C(F)(F)F)nc2ccc(Br)cc12 [Example 1110] | 55.4 nM | 
2 | CNC(=O)N1CCC(Cn2nc(C)c(NC(=O)c3cc(C(F)(F)F)nc4ccc(Br)cc34)c2C)CC1 [Example 1111] | 56.8 nM | 
3 | Cc1nn(Cc2ccc(C(=O)NC[C@H](O)CO)cc2)c(C)c1NC(=O)c1cc(C(F)(F)F)nc2ccc(Br)cc12 [Example 1112] | 57 nM | 
4 | Cc1ccc2nc(C)cc(C(=O)Nc3c(C)nn(Cc4ccc(Br)cc4)c3C)c2c1 [Example 1113] | 58.5 nM | 
5 | Cc1nn(CC2CCOCC2)c(C)c1NC(=O)c1cc(C(F)(F)F)nc2ccc(Br)cc12 [Example 1114] |  | 59.2 nM
6 | COCCNC(=O)c1ccc(Cn2nc(C(F)(F)F)c(NC(=O)c3cc(C(F)(F)F)nc4ccc(Br)cc34)c2C)nc1 [Example 1115] | 59.4 nM | 
7 | Cc1nn(Cc2ccc(C(=O)NCCn3ccnc3)cc2)c(C)c1NC(=O)c1cc(C(F)(F)F)nc2ccc(Br)cc12 [Example 1116] | 59.5 nM | 
8 | Cc1nn(Cc2ccc(F)cc2)c(C)c1NC(=O)c1cc(C(F)(F)F)nc2ccc(N)cc12 [Example 1117] | 59.7 nM | 
9 | Cc1nn(Cc2cccnc2C#N)c(C)c1NC(=O)c1cc(C(F)(F)F)nc2ccc(Br)cc12 [Example 1118] | 63.5 nM | 
10 | Cc1nn(Cc2ccc(C(=O)NCc3ccc(F)cc3)cc2)c(C)c1NC(=O)c1cc(C(F)(F)F)nc2ccc(Br)cc12 [Example 1119] | 65.1 nM | 
11 | COCCCNC(=O)c1ccc(Cn2nc(C)c(NC(=O)c3cc(C(F)(F)F)nc4ccc(Br)cc34)c2C)cc1 [Example 1120] | 65.5 nM | 
12 | Cc1nn(Cc2ccc(C(=O)NCCN(CCO)CCO)cc2)c(C)c1NC(=O)c1cc(C(F)(F)F)nc2ccc(Br)cc12 [Example 1121] | 65.5 nM | 
13 | Cc1nn(Cc2ccc(C(=O)NC(CO)CO)cc2)c(C)c1NC(=O)c1cc(C(F)(F)F)nc2ccc(Br)cc12 [Example 1122] | 67.3 nM | 
14 | Cc1nn(Cc2ccc(C(=O)NCC3CC3(F)F)cc2)c(C)c1NC(=O)c1cc(C(F)(F)F)nc2ccc(Br)cc12 (stereo not drawn) [Example 1123] | 71.1 nM | 
15 | Cc1nn(Cc2ccc(C(=O)NCc3cn(C)cn3)cc2)c(C)c1NC(=O)c1cc(C(F)(F)F)nc2ccc(Br)cc12 [Example 1125] | 78.5 nM | 
16 | CNC(=O)c1nn(Cc2ccc(F)cc2)c(C)c1NC(=O)c1cc(C(F)(F)F)nc2ccc(Br)cc12 [Example 1126] | 80 nM | 
17 | Cc1ccc2nc(C)cc(C(=O)Nc3c(C)nn(Cc4ccc(C#N)c(F)c4)c3C)c2c1 [Example 1127] | 83.3 nM | 
18 | COc1cc(C(=O)Nc2c(C(F)(F)F)nn(Cc3ccc(C#N)nc3)c2C)c2ccccc2n1 [Example 1128] | 86.5 nM | 
19 | Cc1nn(CCc2ccc(F)cc2)c(C)c1NC(=O)c1cc(C(F)(F)F)nc2ccc(Br)cc12 [Example 1129] |  | 86.6 nM
20 | Cc1nn(Cc2ccc(C(=O)NCc3nccs3)cc2)c(C)c1NC(=O)c1cc(C(F)(F)F)nc2ccc(Br)cc12 [Example 1130] | 86.6 nM | 

Row | SMILES | IC50 | IC50 [1]
21 | Cc1nn(Cc2ccc(C(=O)NCCCO)cn2)c(C)c1NC(=O)c1cc(C(F)(F)F)nc2ccc(Br)cc12 [Example 1131] | 86.7 nM | 
22 | COc1cccc(CNC(=O)c2ccc(Cn3nc(C)c(NC(=O)c4cc(C(F)(F)F)nc5ccc(Br)cc45)c3C)cc2)c1 [Example 1132] | 88.2 nM | 
23 | Cc1nn(Cc2ccc(C(=O)NCCCN3CCOCC3)cc2)c(C)c1NC(=O)c1cc(C(F)(F)F)nc2ccc(Br)cc12 [Example 1133] | 90.1 nM | 
24 | Cc1nn(Cc2ccc(C(=O)NCC(C)(C)CO)cc2)c(C)c1NC(=O)c1cc(C(F)(F)F)nc2ccc(Br)cc12 [Example 1134] | 97.3 nM | 
25 | Cc1c(NC(=O)c2cc(C(F)(F)F)nc3ccc(Br)cc23)c(C(N)=O)nn1Cc1ccc(F)cc1 [Example 1135] | 98.1 nM | 
26 | Cc1nn(Cc2ccc(C(=O)NC(CO)(CO)CO)cc2)c(C)c1NC(=O)c1cc(C(F)(F)F)nc2ccc(Br)cc12 [Example 1136] | 98.2 nM | 
27 | Cc1nn(Cc2ccc(C(=O)NCCOc3ccccc3)cc2)c(C)c1NC(=O)c1cc(C(F)(F)F)nc2ccc(Br)cc12 [Example 1137] | 100 nM | 
28 | Cc1nn(Cc2ccc(C(N)=O)cn2)c(C)c1NC(=O)c1cc(C(F)(F)F)nc2ccc(Br)cc12 [Example 1138] | 102 nM | 
29 | Cc1nn(Cc2ccc(C(=O)NCCc3ccccn3)cc2)c(C)c1NC(=O)c1cc(C(F)(F)F)nc2ccc(Br)cc12 [Example 1139] | 105 nM | 
30 | C#CCNC(=O)c1ccc(Cn2nc(C)c(NC(=O)c3cc(C(F)(F)F)nc4ccc(Br)cc34)c2C)cc1 [Example 1141] | 108 nM | 
31 | Cc1nn(Cc2ccc(C(=O)NCc3cncn3C)cc2)c(C)c1NC(=O)c1cc(C(F)(F)F)nc2ccc(Br)cc12 [Example 1142] | 112 nM | 
32 | Cc1nn(CC2CCOCC2)c(C)c1NC(=O)c1cc(C(F)(F)F)nc2c(Cl)cc(Cl)cc12 [Example 1143] | 114 nM | 
33 | Cc1nn(Cc2ccc(C(=O)NCCOCCO)cc2)c(C)c1NC(=O)c1cc(C(F)(F)F)nc2ccc(Br)cc12 [Example 1144] | 114 nM | 
34 | Cc1nn(Cc2ccc(C(=O)N(CCO)CCO)cc2)c(C)c1NC(=O)c1cc(C(F)(F)F)nc2ccc(Br)cc12 [Example 1145] | 116 nM | 
35 | Cc1nn(Cc2ccc(C(=O)N(C)CCC3(O)CCCC3)cc2)c(C)c1NC(=O)c1cc(C(F)(F)F)nc2ccc(Br)cc12 [Example 1146] | 117 nM | 
36 | Cc1nn(Cc2ccc(C(=O)N3CC(C#N)C3)cc2)c(C)c1NC(=O)c1cc(C(F)(F)F)nc2ccc(Br)cc12 [Example 1147] | 117 nM | 
37 | Cc1nn(CCc2cccc(F)c2)c(C)c1NC(=O)c1cc(C(N)=O)nc2ccccc12 [Example 1148] | 122 nM | 
38 | Cc1nn(Cc2ccc(C(=O)NCc3ccccc3F)cc2)c(C)c1NC(=O)c1cc(C(F)(F)F)nc2ccc(Br)cc12 [Example 1149] | 126 nM | 
39 | Cc1nn(Cc2ccc(C(=O)NCCN3CCCCC3)cc2)c(C)c1NC(=O)c1cc(C(F)(F)F)nc2ccc(Br)cc12 [Example 1150] | 128 nM | 
40 | Cc1nn(Cc2ccc(C(=O)NCc3ccccc3)cn2)c(C)c1NC(=O)c1cc(C(F)(F)F)nc2ccc(Br)cc12 [Example 1151] | 128 nM | 

Row | SMILES | IC50 | IC50 [1]
41 | Cc1nn(Cc2ccc(C(=O)NC[C@@H](O)CO)cc2)c(C)c1NC(=O)c1cc(C(F)(F)F)nc2ccc(Br)cc12 [Example 1152] | 132 nM | 
42 | COc1cc(C(=O)Nc2c(C)nn(Cc3cccnc3C#N)c2C)c2ccccc2n1 [Example 1153] | 136 nM | 
43 | Cc1nn(Cc2ccc(C(=O)NCc3cnn(C)c3)cc2)c(C)c1NC(=O)c1cc(C(F)(F)F)nc2ccc(Br)cc12 [Example 1154] | 139 nM | 
44 | COC(=O)N1CCC(Cn2nc(C)c(NC(=O)c3cc(C(N)=O)nc4ccccc34)c2C)CC1 [Example 1155] | 140 nM | 
45 | CC(=O)N1CCC(Cn2nc(C)c(NC(=O)c3cc(C(F)(F)F)nc4ccc(Br)cc34)c2C)CC1 [Example 1156] | 149 nM | 
46 | CNC(=O)CCNC(=O)c1ccc(Cn2nc(C)c(NC(=O)c3cc(C(F)(F)F)nc4ccc(Br)cc34)c2C)cc1 [Example 1157] | 150 nM | 
47 | Cc1nn(Cc2ccc(C(=O)Nc3ccncn3)cc2)c(C)c1NC(=O)c1cc(C(F)(F)F)nc2ccc(Br)cc12 [Example 1158] | 155 nM | 
48 | Cc1nn(Cc2ccc(C(=O)NCC3(C)COC3)cn2)c(C)c1NC(=O)c1cc(C(F)(F)F)nc2ccc(Br)cc12 [Example 1159] | 160 nM | 
49 | Cc1nn(Cc2ccc(C(=O)N(C)CCC#N)cc2)c(C)c1NC(=O)c1cc(C(F)(F)F)nc2ccc(Br)cc12 [Example 1160] | 161 nM | 
50 | Cc1nn(Cc2ccc(C(=O)NCc3cccc(F)c3)cc2)c(C)c1NC(=O)c1cc(C(F)(F)F)nc2ccc(Br)cc12 [Example 1163] | 166 nM | 
51 | Cc1nn(Cc2ccc(C(=O)NC[C@@H]3CCCO3)cc2)c(C)c1NC(=O)c1cc(C(F)(F)F)nc2ccc(Br)cc12 [Example 1164] | 167 nM | 
52 | COc1ccc(CCCn2nc(C)c(NC(=O)c3cc(C(F)(F)F)nc4ccc(Br)cc34)c2C)cc1 [Example 1165] | 168 nM | 
53 | Cc1nn(Cc2ccc(C(=O)NCCCN(C)C)cc2)c(C)c1NC(=O)c1cc(C(F)(F)F)nc2ccc(Br)cc12 [Example 1167] | 171 nM | 
54 | CC(=O)NCCNC(=O)c1ccc(Cn2nc(C)c(NC(=O)c3cc(C(F)(F)F)nc4ccc(Br)cc34)c2C)cc1 [Example 1168] | 179 nM | 
55 | CC(=O)Nc1ccc2nc(C(F)(F)F)cc(C(=O)Nc3c(C)nn(Cc4ccc(F)cc4)c3C)c2c1 [Example 1169] | 182 nM | 
56 | Cc1nn(Cc2ccc(C(=O)NCc3cccnc3)cn2)c(C)c1NC(=O)c1cc(C(F)(F)F)nc2ccc(Br)cc12 [Example 1170] | 189 nM | 
57 | COC(=O)N1CCC(Cn2nc(C)c(NC(=O)c3cc(C(F)(F)F)nc4ccc(Br)cc34)c2C)CC1 [Example 1171] | 195 nM | 
58 | C=Cc1ccc(Cn2nc(C)c(NC(=O)c3cc(OC)nc4ccccc34)c2C)cc1 [Example 1172] | 198 nM | 
59 | Cc1nn(Cc2ccc(C(=O)Nc3ccncc3)cc2)c(C)c1NC(=O)c1cc(C(F)(F)F)nc2ccc(Br)cc12 [Example 1173] | 198 nM | 
60 | Cc1nn(Cc2ccc(C(=O)NC(C)(C)C)cc2)c(C)c1NC(=O)c1cc(C(F)(F)F)nc2ccc(Br)cc12 [Example 1174] | 203 nM | 
